The text below walks through data of patent publication US7371742B2, “Porphyrin derivatives for photodynamic therapy” (Institut Curie, priority 2001, dated 2008).

Read-outs that look alike come from different tables or passages of the source.

The test system of data set [1] is human colic adenocarcinoma cell line HT29. The data set is described as follows: HT29 cell survival (MTT assay) after 24 h incubation, with or without light irradiation. A general note: Formazan colour is commonly taken as a measure of viable cells.
Procedure: (§1) HT29 cells were cultivated in Dulbecco's MEM supplemented with 10% fetal calf serum (FCS). Cells from log-phase culture were seeded in 24-microwell plates (1 mL-5×10^4 cells/well) and kept at 37° C. in a water-jacketed incubator for 2 days under an air/CO2 atmosphere (5% CO2). Tested compounds, in DMSO solution, were added under the minimum volume (5 μL) to reach a concentration ranging from 0.1 to 10 μg/mL. Controls cells received 5 μL of DMSO free of dye. Plates were incubated 24 h, then medium was removed and the cells were washed twice with phosphate buffered saline (PBS) before addition of fresh medium free of drug and irradiation with visible light using a home made “light box” giving a fluence of 3.8 mW/cm^2 on the whole visible spectrum. Irradiation with red light was carried out using the same device fitted with an orange filter (0% T at 520 nm and 80% T at 590 nm) leading to a fluence of 2 mW/cm^2.
(§2) Plates were reincubated for 3 days before evaluation of the cell survival using the MTT assay (T. Mosmann, “Rapid calorimetric assay for cellular growth and survival. Application to proliferation assays”. J. Immunol. Methods 65,55-63,1983) using 30 min incubation with 100 μg well of 3-[4,5-dimethylthiazol-2-yl]-2,5-diphenyl tetrazolium bromide (MTT, Sigma). After removal of the medium, formazan crystals were taken up with 100 μL of DMSO and absorbance at 540 ni was measured with a Bio-Rad microplate reader (model 450); survival was expressed as % of untreated controls.
The test system is the same in data set [2].
Procedure: as §1, §2
Data set [3] relates to RBY-79 (indifferently named Y-79) cells. Nature of the data set: RBY-79 (Y79) cell cytotoxicity / photocytotoxicity.
Source text: (§3) Columns HT29 and Y79 (═RBY79), without light, correspond to the cytotoxic activity.
Another data set relates to L-1210 cells. Nature of the data set: Cytotoxicity L-1210 (no light), cytostatic activity. It is filed as cell-based, human. The text has this: Column L1210 corresponds to the cytostatic activity.
The test system of data set [4] is RBY-79 (indifferently named Y-79) cells.
Source text: as §3
[5] abbreviates: read-out: HT 29 IC50 (μM) with 2J/cm^2, irradiation with filter (0% T at 520 nm, 80% T at 590 nm), 3.5 mW/cm^2, 10 min.
[6] abbreviates: read-out: HT 29 IC50 (μM) without light, without light (cytotoxic activity).
Where [7] appears, read: read-out: Y79 IC50 (μM) without light, without light (cytotoxic activity).

For the molecule “5, 10, 15-tri(meta-hydroxyphenyl)-20-phenyl)-2,3-chlorin and 5,10,15-tri(3-hydroxyphenyl)-7,8-chlorin [Compound 77-78]”, the IC50 is 1.5 ± 0.07 µM in data set [1] (setting [5]); 6.6 ± 0.9 µM in data set [1] (setting [6]); 0.6 ± 0.1 µM in data set [3] (read-out: Y79 IC50 (μM) With 2J/cm^2, irradiation with filter (0% T at 520 nm, 80% T at 590 nm), 3.5 mW/cm^2, 10 min); over 10 µM in data set [3] (setting [7]). The “cytotoxic for HT29 (in words)” value in data set [2] is reported as “cytotoxic”.

`OC[C@H]1O[C@@H](SCc2ccc(-c3c4nc(c(-c5ccc(CS[C@@H]6O[C@H](CO)[C@@H](O)[C@H](O)[C@H]6O)cc5)c5ccc([nH]5)c(-c5ccc(CS[C@@H]6O[C@H](CO)[C@@H](O)[C@H](O)[C@H]6O)cc5)c5nc(c(-c6ccc(CS[C@@H]7O[C@H](CO)[C@@H](O)[C@H](O)[C@H]7O)cc6)c6ccc3[nH]6)C=C5)C=C4)cc2)[C@H](O)[C@@H](O)[C@@H]1O` [Compound 65, TPP(p-CH2-S-β-GluOH)4]: the IC50 in data set [1] (setting [5]) is 5.2 µM; in data set [1] (setting [6]) it was over 10 µM; in data set [3] (setting [7]), 4.7 µM. The “Cytotoxicity L-1210 (no light), % at 10 μg/ml” value in the data set on L-1210 cells was 16%. Also, the “cytotoxic for Y79 (in words)” value in data set [4] is reported as “cytotoxic”. In data set [3] (50% effect, with light or not), the “RBY-79, concentration giving 50% with light or not” value is on record as 50% at 5 μg/ml. For the same molecule, in data set [3] (irradiation with filter (0% T at 520 nm, 80% T at 590 nm), 3.5 mW/cm^2, 10 min), the “Y79 IC50 (μM) With 2J/cm^2” value is recorded as “Inactive”.
